Holding throughout (format): in vivo
The test system of assay [1] is Erysiphe graminis tritici (powdery mildew). Description: Test 1 greenhouse foliar spray screen, powdery mildew on wheat. The note with it: for POWD MDEW: disease control rating, foliar spray on wheat, 400 ppm (+++ at 100 ppm); for pest or weed control at 400 ppm: Blumeria graminis, foliar, Test 1, foliar spray on wheat, disease control rating at 400 ppm / 100 ppm, read-out: POWD MDEW.

Assay [2] concerns Pyricularia oryzae (rice blast). Put plainly: whole plant or invertebrate. The note with it: for RICE BLAST: disease control rating, foliar spray on rice, 400 ppm (+++ at 100 ppm); for pest or weed control at 400 ppm: Pyricularia oryzae, foliar, read-out: RICE BLAST, Test 1, foliar spray on rice, disease control rating at 400 ppm / 100 ppm.
Assay [3] concerns Puccinia recondita tritici (leaf rust). Description: Test 1 greenhouse foliar spray screen, leaf rust on wheat. The conditions noted are these: for LEAF RUST: disease control rating, foliar spray on wheat, 400 ppm (+++ at 100 ppm); for pest or weed control at 400 ppm: Puccinia recondita, foliar, Test 1, foliar spray on wheat, disease control rating at 400 ppm / 100 ppm.
The subject of assay [4] is Botrytis cinerea (gray mold). Description: Test 1 greenhouse foliar spray screen, gray mold on grape berries. The conditions noted are these: for GRAY MOLD: disease control rating, spray on grape berries, 400 ppm (+++ at 100 ppm); for pest or weed control at 400 ppm: Botrytis cinerea, foliar, Test 1, spray on grape berries, disease control rating at 400 ppm / 100 ppm.
Assay [5] concerns Pseudoperonospora cubensis (downy mildew). Description: Test 1 greenhouse foliar spray screen, downy mildew on squash. The note with it: for DOWN MDEW: disease control rating, foliar spray on squash, 400 ppm (+++ at 100 ppm); for pest or weed control at 400 ppm: Pseudoperonospora cubensis, foliar, Test 1, foliar spray on squash, disease control rating at 400 ppm / 100 ppm, read-out: DOWN MDEW.

Assay [6] relates to Cercospora beticola (leaf spot). Put plainly: Test 1 greenhouse foliar spray screen, leaf spot on sugar beet. The conditions noted are these: for LEAF SPOT: disease control rating, foliar spray on sugar beet, 400 ppm (+++ at 100 ppm); for pest or weed control at 400 ppm: Cercospora beticola, Test 1, foliar spray on sugar beet, disease control rating at 400 ppm / 100 ppm.
Assay [7] relates to Venturia inaequalis (apple scab). Put plainly: Test 1 greenhouse foliar spray screen, apple scab on apple seedling. The note with it: for APPL SCAB: disease control rating, foliar spray on apple seedling, 400 ppm (+++ at 100 ppm); for pest or weed control at 400 ppm: Venturia inaequalis, Test 1, foliar spray on apple seedling, disease control rating at 400 ppm / 100 ppm, read-out: APPL SCAB.

Assay [8] concerns Septoria tritici (leaf blotch). Description: Test 1 greenhouse foliar spray screen, leaf blotch on wheat. The note with it: for LEAF BLOT: disease control rating, foliar spray on wheat, 400 ppm (+++ at 100 ppm); for pest or weed control at 400 ppm: Zymoseptoria tritici, Test 1, foliar spray on wheat, disease control rating at 400 ppm / 100 ppm, read-out: LEAF BLOT.
In assay [9] the test system is southern armyworm (Spodopetra eridania Cramer). Put plainly: Mite/insect screen, SAW. The note with it: Spodoptera eridania, foliar, percent mortality, foliar spray on squash, read-out: SAW RESULTS %; for mortality at 200 ppm: rate 200 ppm; for mortality at 400 ppm: rate 400 ppm. The gist of the method:
(§1)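 Foliar spray to runoff (10 psi), 1 h drying; aqueous dilutions from acetone/alcohol emulsifier stock. Mortality (%) after standard exposure.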

The test system of assay [10] is Twospotted spider mites (Tetranychus urticae Koch). Put plainly: Mite/insect screen, SM. The conditions noted are these: for mortality at 200 ppm / mortality at 400 ppm: Tetranychus urticae, foliar, percent mortality, foliar spray on squash, read-out: SM RESULTS %; for mortality at 200 ppm: rate 200 ppm; for mortality at 400 ppm: rate 400 ppm. The gist of the method:
as §1

Assay [11] concerns melon aphids (Aphis gossypii Glover). Put plainly: Mite/insect screen, MA. The conditions noted are these: Aphis gossypii, foliar, percent mortality, foliar spray on squash, read-out: MA RESULTS %; for mortality at 200 ppm: rate 200 ppm; for mortality at 400 ppm: rate 400 ppm. The gist of the method: as §1
For a further assay, the system named is corn rootworm. Put plainly: Mite/insect screen, CRW. The conditions noted are these: read-out: CRW RESULTS %; for mortality at 24 ppm: CRW rate 24.00 ppm. In a few lines: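 Following dissolution in equal parts acetone and alcohol with 23 g/L and 13 g/L emulsifier blends and dilution with water, test solutions were scored for percent mortality at the end of standard exposures.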

[12] abbreviates: percent mortality, CRW rate 12.00 ppm.
Where [13] appears, read: summary statement in the description.

Data on eight compounds can be found in EP0326331B1, “Substituted quinolines and cinnolines” (Dow AgroSciences LLC, priority 1988, dated 1989).

Read-outs that look alike come from different tables or passages of the source.

Consider `CC(CNc1cc(NCC(C)c2ccccc2)c2ccccc2n1)c1ccccc1` (stereo not shown) [Example 184, N,N'-bis(2-phenylpropyl)-2,4-quinolinediamine], for which the “POWD MDEW” value in assay [1] is listed as “- (0-19% control at 400 ppm)”. Further, the “RICE BLAST” value in assay [2] is on record as “+ (20-89% control at 400 ppm)”. Besides, the “LEAF RUST” value in [3] is reported as “++ (90-100% control at 400 ppm)”. Moreover, the “GRAY MOLD” value in assay [4] is listed as “- (0-19% control at 400 ppm)”. The “DOWN MDEW” value in assay [5] is recorded as “++ (90-100% control at 400 ppm)”. Moreover, the “LEAF SPOT” value in assay [6] is given as “- (0-19% control at 400 ppm)”. Moreover, the “APPL SCAB” value in [7] is “- (0-19% control at 400 ppm)”. Also, in assay [8], the “LEAF BLOT” value is listed as “- (0-19% control at 400 ppm)”. Moreover, the mortality at 200 ppm in assay [9], in assay [10] and in [11] was 0% throughout. For the same compound, the mortality at 12 ppm in the assay with corn rootworm (setting [12]) stood at 0%.
Turning to `Clc1ccc(CCNc2ccc3c(NCCc4ccc(Cl)cc4)ccnc3c2)cc1` [Example 186, N,N'-bis[2-(4-chlorophenyl)ethyl]-4,7-quinolinediamine], the “POWD MDEW” value in assay [1] is listed as “- (0-19% control at 400 ppm)”. Besides, in assay [2], the “RICE BLAST” value is reported as “- (0-19% control at 400 ppm)”. In assay [3], the “LEAF RUST” value is given as “+ (20-89% control at 400 ppm)”. Further, the “GRAY MOLD” value in assay [4] is listed as “- (0-19% control at 400 ppm)”. Further, in assay [5], the “DOWN MDEW” value is reported as “+++ (90-100% control at 100 ppm)”. In [6], the “LEAF SPOT” value is “+ (20-89% control at 400 ppm)”. For the same compound, the “APPL SCAB” value in [7] was “- (0-19% control at 400 ppm)”. The “LEAF BLOT” value in assay [8] is given as “+ (20-89% control at 400 ppm)”. Besides, the mortality at 200 ppm in assay [9], in [10] and in assay [11] was 0% each time. Besides, the mortality at 400 ppm in assay [9], in assay [10] and in assay [11] was 0% throughout. Further, the mortality at 12 ppm in the assay with corn rootworm (setting [12]) amounted to 0%. The mortality at 24 ppm in the assay on corn rootworm (percent mortality) stood at 0%.
`COc1ccc(CCNc2ccc3c(NCCc4ccc(OC)cc4)ccnc3c2)cc1` [Example 187, N,N'-bis[2-(4-methoxyphenyl)ethyl]-4,7-quinolinediamine]: the “POWD MDEW” value in assay [1] is reported as “- (0-19% control at 400 ppm)”. Further, in assay [2], the “RICE BLAST” value is “+ (20-89% control at 400 ppm)”. Besides, the “LEAF RUST” value in [3] is “+ (20-89% control at 400 ppm)”. Also, the “GRAY MOLD” value in [4] was “- (0-19% control at 400 ppm)”. For the same compound, in assay [5], the “DOWN MDEW” value is “+++ (90-100% control at 100 ppm)”. For the same compound, the “LEAF SPOT” value in assay [6] was “- (0-19% control at 400 ppm)”. Further, the “APPL SCAB” value in assay [7] was “- (0-19% control at 400 ppm)”. The “LEAF BLOT” value in assay [8] is on record as “- (0-19% control at 400 ppm)”. Also, the mortality at 200 ppm in [9], in [10] and in [11] was 0% throughout. Besides, the mortality at 400 ppm in assay [9], in [10] and in assay [11] was 0% each time. Further, in the assay with corn rootworm (setting [12]), the mortality at 12 ppm was found to be 0%. The mortality at 24 ppm in the assay with corn rootworm (percent mortality) worked out at 0%.
For `c1ccc(CCNc2ccnc3c(NCCc4ccccc4)cccc23)cc1` [Example 189, N,N'-bis(2-phenylethyl)-4,8-quinolinediamine], the pest or weed control at 400 ppm was 0 to 19% in assay [1]; 20 to 89% in [2]; 20 to 89% in assay [3]; 0 to 19% in assay [4]; 20 to 89% in assay [5]; 0 to 19% in [6]. The pest or weed control at 400 ppm in assay [7] and in assay [8] was 0 to 19% each time. Further, the mortality at 200 ppm in [9], in assay [10] and in [11] was 0% each time. In the assay on corn rootworm (setting [12]), the mortality at 12 ppm turned out to be 0%.
`Fc1cccc2c(NCCc3ccc(Cl)cc3Cl)cc(NCCc3ccc(Cl)cc3Cl)nc12` [Example 190, N,N'-bis[2-(2,4-dichlorophenyl)ethyl]-8-fluoro-2,4-quinolinediamine]: the pest or weed control at 400 ppm is 0 to 19% in [1]; 20 to 89% in assay [2]; 90 to 100% in assay [3]; 0 to 19% in assay [4]; 0 to 19% in [5]; 0 to 19% in [6]. The pest or weed control at 400 ppm in assay [7] and in [8] was 0 to 19% throughout. Further, the mortality at 200 ppm in [9], in [10] and in assay [11] was 0% throughout. The mortality at 12 ppm in the assay on corn rootworm is 0%.
`C1=C(CCNc2ccc3nccc(NCCC4=CCCCC4)c3c2)CCCC1` [Example 192, N,N'-bis[2-(1-cyclohexen-yl)ethyl]-4,6-quinolinediamine]: the pest or weed control at 400 ppm is 0 to 19% in [1]; 0 to 19% in assay [2]; 90 to 100% in [3]; 0 to 19% in assay [4]; 90 to 100% in [5]; 0 to 19% in assay [6]. The pest or weed control at 400 ppm in [7] lay in the range of 0 to 19%; in [8] it was 20 to 89%. Besides, the mortality at 200 ppm in assay [9], in [10] and in [11] was 0% throughout. For the same compound, the mortality at 400 ppm in [9], in assay [10] and in [11] was 0% throughout. In addition, the mortality at 12 ppm in the assay on corn rootworm (setting [12]) turned out to be 0%. For the same compound, the mortality at 24 ppm in the assay with corn rootworm (percent mortality) came to 0%.
Consider `Fc1cccc2c(OCCc3cccc(Cl)c3)ccnc12` [Example 201, 4-[2-(3-chlorophenyl)ethoxy]-8-fluoroquinoline], for which the pest or weed control at 400 ppm in [1] lay in the range of 90 to 100%; in assay [2], 20 to 89%; in assay [3], 90 to 100%; in assay [4], 0 to 19%; in assay [5], 90 to 100%; in assay [6], 90 to 100%. Further, the pest or weed control at 400 ppm was 20 to 89% in assay [7] and 90 to 100% in assay [8]. In addition, the “activity against downy mildew” value in assay [5] (setting [13]) is on record as “particularly excellent activity”. The mortality at 200 ppm was determined as 0% in [9], 80% in assay [10] and 100% in [11]. In addition, the mortality at 400 ppm in assay [9] was found to be 0%; in assay [10], 80%; in assay [11] it was 100%. Further, the activity as miticides entry in assay [10] (setting [13]) is recorded as “particularly excellent activity”. Moreover, the mortality at 12 ppm with corn rootworm (setting [12]) came to 0%. Also, the mortality at 24 ppm with corn rootworm (percent mortality) is 0%.
On to `Clc1ccc2c(OCCc3ccccc3)ccnc2c1` [Example 202, 7-chloro-4-(2-phenylethoxy)quinoline], for which the pest or weed control at 400 ppm lay in the range of 90 to 100% in [1]; 20 to 89% in [2]; 90 to 100% in assay [3]; 0 to 19% in assay [4]; 90 to 100% in assay [5]; 20 to 89% in assay [6]. Besides, the pest or weed control at 400 ppm in assay [7] was 0 to 19%; in [8] it was 20 to 89%. Also, the mortality at 200 ppm in assay [9], in assay [10] and in assay [11] was 0% throughout. The mortality at 400 ppm in [9], in assay [10] and in assay [11] was 0% throughout. In addition, in the assay with corn rootworm (setting [12]), the mortality at 12 ppm was 0%. In addition, the mortality at 24 ppm in the assay with corn rootworm (percent mortality) stood at 0%.
